From patent publication US20220332758A1, “PEPTIDE-BASED COMPOSITIONS AND METHODS FOR TREATING ALZHEIMER'S DISEASE” (Board of Regents, The Universityof Texas System, priority 2019, published 2022)

Legend:
20S proteasome = 20S proteasome (Homo sapiens, UniProt P25787+P60900); conditions: cited from earlier work
[1] = biological target: T1, α face pockets of the 20S core proteasome (Homo sapiens, UniProt P25787+P60900); test: Competition of TAT peptides with Rpt C-terminal tail peptides for α face pockets (ChT-L activity of 20S); assay type: biochemical
T1 construct: purified from erythrocytes; purchased Boston Biochem, Inc. or Enzo Life Sciences, Inc; host or cells: human erythrocytes
Text: As mentioned herein, the binding pockets on the α face accept “anchors” from natural protein ligands of the 20S core. […] The 10-residue Rpt-derived C-terminal “tail” peptides (“Rpt peptides”) can be used as competitors with the Rpt subunits or with small allosteric ligands. Importantly, the Rpt peptides interject between the subunits with their C-termini, whereas TAT peptides, according to the modeling, use their N-termini for this purpose. To test the specificity of interactions between TAT compounds and the α face, competition experiments were performed. The 20S core was challenged with selected TAT compounds after treatment with Rpt peptides. Peptides of Rpt2 ([…]; SEQ ID NO: 10), Rpt3 ([…]; SEQ ID NO: 11), Rpt5 ([…]; SEQ ID NO: 12) and Rpt6 ([…]; SEQ ID NO: 13) subunits were selected, docking in α3/α4, α1/α2, α5/α6 and α2/α3 pockets, respectively. Tails of Rpt2, 3, and 5 display the canonical HbYX motif, whereas the LeuTrpLys C-terminus of Rpt6 may be considered “pseudo-HbYX”, with a bulky Trp replacing Tyr. Results of the competition experiments are presented as radar plots in FIG. 15. […] This pocket also emerged as the major binding site for (1) and (8). However, these compounds likely weakly competed with the Rpt2 tail for binding to the α3/α4 pocket as well. The α3/α4 pocket seemed to be favored by (6). […] These complex patterns point at the importance of allosteric effects between the α face ligands, the gate and the catalytic chamber.
Determination of Proteasome Activity. Human housekeeping core (20S) proteasome purified from erythrocytes was purchased from Boston Biochem, Inc. (Cambridge, Mass.) or from Enzo Life Sciences, Inc. (Farmingdale, N.Y.). Multiple batches of the proteasomes were used and performed reproducibly. The stock proteasome was diluted to 0.2 mg/mL working solution in “dilution buffer” (50 mM Tris/HCl, pH 8, 20% glycerol). The following model peptide substrates, releasing fluorescent 7-amino-4-methylcoumarin (AMC) reporter group after cleavage, were used: succinyl-LeuLeuValTyr-AMC (SEQ ID NO: 14) (for the ChT-L peptidase; SucLLVY-AMC; Bachem Bioscience Inc., Philadelphia, Pa.), butoxycarbonyl-LeuArgArg-AMC (T-L; Bachem Bioscience Inc., Philadelphia, Pa.) and carbobenzoxy-LeuLeuGlu-AMC (PGPH; Enzo Life Sciences Inc., Farmingdale, N.Y.). The substrates were used at concentration of 50 μM (ChT-L) or 100 μM (T-L, PGPH). Free AMC (Sigma-Aldrich, St. Louis, Mo.) was used as the standard. The C-terminal peptides derived from Rpt2, Rpt3, Rpt5 and Rpt6 were synthesized (standard solid-phase peptide chemistry) and purified to at least 98% purity by GenScript (Piscataway, N.J.). The TAT peptides, Rpt peptides (except Rpt6) and the peptide substrates were dissolved in anhydrous dimethylsulfoxide (DMSO; Sigma-Aldrich, St. Louis, Mo.) and such stock solutions were stored at −20° C. The total concentration of DMSO in final reaction mixtures never exceeded 3% (vol/vol). The Trp (tryptophan)-containing Rpt6 peptide was dissolved in ultrapure water and stored at −20° C., protected from light. The reaction was carried out in 96-well plates, in 100 μL of reaction mixture that consisted of 45 mM Tris/HCl, pH 8, 100 mM KCl, 1 mM EDTA (reaction buffer) and a fluorogenic peptide substrate, to which 200 ng (nearly […]) of proteasome were added. The addition of KCl/EDTA (ethylenediaminetetraacetic acid) to reaction buffer assured latency of the core proteasome. The proteasome was preincubated with a substrate for 10 min at room temperature, then 1 μL of DMSO or a desired concentration of a TAT peptide in 1 μL of DMSO were added. After mixing, the plate was transferred to a Fluoroskan Ascent plate reader (Thermo Fisher Scientific Inc., Waltham, Mass.) for 1 h (37° C.), with fluorescence readouts once per minute. To test the competition with Rpt derived peptides, the Rpt peptide (1 μM) was added before the TAT peptide to the reaction mixture. […]

[2] = biological target: T2, proteasome ChT-L activity in SK-N-SH (ATCC HTB-11) cells (Homo sapiens, UniProt P25787+P60900); test: ChT-L proteasome activity in lysates of SK-N-SH cells treated with TAT peptides; assay type: cell-based; conditions: 1 μM, 24 h
T2 construct: host or cells: SK-N-SH human neuroblastoma cells
Method: (§1) Cell Culture. Human SK-N-SH neuroblastoma cell line (ATCC® HTB-11™ American Type Culture Collection; Manassas, Va.) were cultured according to ATCC specifications (EMEM, 10% heat-inactivated FBS) The cells at passage 2-4 were treated with 1 μM TAT peptides or the DMSO vehicle diluted with the medium 1: 1000, for 24 h. The content of live cells was determined by the Trypan Blue-exclusion assay. The cells were harvested, washed twice in PBS, resuspended in dilution buffer (as described herein) and stored in −80° C. To prepare lysates, the thawed preparations were vortexed with glass beads and centrifuged for 5 min 5,000×g (4° C.). The supernatant was centrifuged for 20 min 14,000×g (4° C.). The resulting supernatant—“crude lysate” was diluted to 1 mg/mL of total protein with dilution buffer. 1 μg of lysate per assay (reaction buffer: 50 mM Tris/HCl pH 8, 0.1 mM MgCl2, 0.2 mM ATP, 0.1 mM dithiothreitol, 50 μM Suc-LLVY-AMC (SEQ ID NO: 14)) was used for determination of ChT-L activity in a 96-well format, as above.

[3] = biological target: proteasome in SK-N-SH cell lysates (Homo sapiens, UniProt P28074); test: ChT-L activity of SK-N-SH cell lysates exposed to Bortezomib; assay type: biochemical; conditions: 1 μM
Method: as §1

[4] = biological target: T3, latent human 20S proteasome (Homo sapiens, UniProt P25787+P60900); test: Chymotrypsin-like (ChT-L) activity of purified latent human 20S proteasome, Suc-LLVY-AMC substrate; assay type: biochemical
T3 construct: purified from erythrocytes; purchased Boston Biochem, Inc. or Enzo Life Sciences, Inc; host or cells: human erythrocytes
Method: Determination of Proteasome Activity. Human housekeeping core (20S) proteasome purified from erythrocytes was purchased from Boston Biochem, Inc. (Cambridge, Mass.) or from Enzo Life Sciences, Inc. (Farmingdale, N.Y.). […] The stock proteasome was diluted to 0.2 mg/mL working solution in “dilution buffer” (50 mM Tris/HCl, pH 8, 20% glycerol). The following model peptide substrates, releasing fluorescent 7-amino-4-methylcoumarin (AMC) reporter group after cleavage, were used: succinyl-LeuLeuValTyr-AMC (SEQ ID NO: 14) (for the ChT-L peptidase; SucLLVY-AMC; Bachem Bioscience Inc., Philadelphia, Pa.), butoxycarbonyl-LeuArgArg-AMC (T-L; Bachem Bioscience Inc., Philadelphia, Pa.) and carbobenzoxy-LeuLeuGlu-AMC (PGPH; Enzo Life Sciences Inc., Farmingdale, N.Y.). The substrates were used at concentration of 50 μM (ChT-L) or 100 μM (T-L, PGPH). Free AMC (Sigma-Aldrich, St. Louis, Mo.) was used as the standard. […] The TAT peptides, Rpt peptides (except Rpt6) and the peptide substrates were dissolved in anhydrous dimethylsulfoxide (DMSO; Sigma-Aldrich, St. Louis, Mo.) and such stock solutions were stored at −20° C. The total concentration of DMSO in final reaction mixtures never exceeded 3% (vol/vol). The Trp (tryptophan)-containing Rpt6 peptide was dissolved in ultrapure water and stored at −20° C., protected from light. The reaction was carried out in 96-well plates, in 100 μL of reaction mixture that consisted of 45 mM Tris/HCl, pH 8, 100 mM KCl, 1 mM EDTA (reaction buffer) and a fluorogenic peptide substrate, to which 200 ng (nearly […]) of proteasome were added. […] The proteasome was preincubated with a substrate for 10 min at room temperature, then 1 μL of DMSO or a desired concentration of a TAT peptide in 1 μL of DMSO were added. After mixing, the plate was transferred to a Fluoroskan Ascent plate reader (Thermo Fisher Scientific Inc., Waltham, Mass.) for 1 h (37° C.), with fluorescence readouts once per minute. To test the competition with Rpt derived peptides, the Rpt peptide (1 μM) was added before the TAT peptide to the reaction mixture. The reaction rates were calculated from a linear segment of kinetic curves constructed from measurements in 1-min intervals. Reaction rates were calculated using a linear fit performed with the Slope Analyser and Enzyme Kinetics applications launched within Origin Pro 2019 (OriginLab Corporation, Northampton, Mass.). […] The data are presented as mean±SD from at least three independent experiments.
Statistical Analysis. Experiments were performed at least in three independent replicates. The results are presented as a mean±SD. A two-tailed t-test was applied to compare the means. The comparisons were allowing for unequal variances with a Welch correction. Abundance of proteasome conformers was compared with the chi squared test and two-sample proportion test. A significance level was set at 0.05. Statistical analysis was performed using statistical procedures offered by OriginPro 2019 (OriginLabs, Northampton, Mass.). Reaction rates were calculated from a smoothed linear segment of kinetic traces using OriginPro 2019. Response curves (activity vs. compound concentration) were fitted with a nonlinear fitting application of OriginPro 2019. The AC50 and maximum activation fold was calculated based on the equations implemented to fit the response curves.

## N=C(N)NCCC[C@H](NC(=O)CN)C(=O)N[C@@H](CCCCN)C(=O)N[C@@H](CCCCN)C(=O)N[C@@H](CCCNC(=N)N)C(=O)N[C@@H](CCCNC(=N)N)C(=O)N[C@@H](CCC(N)=O)C(=O)N[C@@H](CCCNC(=N)N)C(=O)N[C@@H](CCCNC(=N)N)C(=O)N[C@@H](CCCNC(=N)N)C(=O)N1CCC[C@H]1C(=O)N[C@@H](CO)C(=O)O [(1), reference compound]
20S proteasome
  degradation by 20S proteasome: digested by 20S proteasome
[1]; 1 μM Rpt peptide
  enhanced activation with Rpt tails: enhanced activation in the presence of one of Rpt tails, namely Rpt5 or Rpt6
[1]; 1 μM Rpt peptide added before the TAT peptide
  competition with Rpt tail peptides: weakly negative score for the Rpt2 tail to the presumed major competitor Rpt3
[2]
  proteasome ChT-L activity in lysates from treated cells vs control lysates: lack of significant activation

## CC(C)C[C@H](NC(=O)[C@H](Cc1ccccc1)NC(=O)c1cnccn1)B(O)O [Bortezomib]
[3]
  effect on ChT-L activity of cell lysates (in words): almost complete abrogation of ChT-L activity

## CC(C)(NC(=O)C(CCC(N)=O)NC(=O)C(CCCNC(=N)N)NC(=O)C(CCCNC(=N)N)NC(=O)C(CCCCN)NC(=O)C(CCCCN)NC(=O)C(CCCNC(=N)N)NC(=O)CN)C(=O)NC(=O)C(C)(C)C(=O)NC(CCC(N)=O)C(=O)NC(CCCNC(=N)N)C(=O)NC(CCCNC(=N)N)C(=O)NC(CCCCN)C(=O)NC(CCCCN)C(=O)NC(CCCNC(=N)N)C(=O)NCC(=O)O (stereo not shown) [Tat5-8, 9 Aib, GRKKRRQ-AibG-QRRKKRG]
[4]; 20S proteasome AC50, Table 1, ChT-L activity, Suc-LLVY-MCA, purified human housekeeping 20S
  AC50: 183 nM
[4]; in vitro, latent human 20S
  activation of ChT-L activity of 20S proteasome (in words): surprisingly excellent activator slightly less potent than Tat1-8,9Aib
